Like-named read-outs stand apart in the source and are kept apart here.
Target: T1, TAF3 WT (GST-tagged Taf3-PHD, residues 857–924) (Mus musculus, UniProt Q5HZG4)
T1 construct: Mus musculus Taf3-PHD domain (residues 857–924); made in house; host or cells: E. coli BL21(DE3)
T1 sequence (Q5HZG4 857-924): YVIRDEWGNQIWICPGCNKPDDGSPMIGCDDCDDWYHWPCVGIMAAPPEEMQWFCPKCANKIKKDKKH
Experiment: ITC of GST-tagged Taf3-PHD wild type
Type: binding
Source text: The coding sequences of Mus musculus Taf3-PHD domain (residues 857–924) and Homosapiens PHF2 (1–66), PHF8 (37–102), and BPTF(2) (2865–2921) were cloned into the pGEX2T-derived vector, pRP265NB, for bacterial expression of GST-tagged proteins. Note that the PHD fingers of M. musculus Taf3 and H. sapiens TAF3 differ in a single amino acid. A901 in mouse corresponds to T899 in human. Here, amino acid numbering corresponds to mouse Taf3 isoform 1 with UniProt ID: Q5HZG4, accessible at https://www.uniprot.org/uniprotkb/Q5HZG4/entry. Single or double mutations were introduced by mutagenesis polymerase chain reaction and validated by Sanger sequencing. A single colony of freshly transformed BL21(DE3) Escherichia coli bacteria with the corresponding construct was grown in Luria broth (LB) medium supplemented with 50 μg/ml ampicillin until an OD600 of 0.7. […]
ITC experiments were performed at 20°C with a MicroCal VP-ITC microcalorimeter (Malvern) by sequential injection of 10 μl at 300 μM histone peptide during 20 s into the sample cell containing 30 or 15 μM of GST-Taf3 (wild type or mutant) or GST-BPTF, GST-PHF2, and GST-PHF8 PHDs in ITC buffer (100 mM NaCl, 20 mM Tris–HCl, pH 7.5). […] ITC data were subsequently analysed and fitted with the one-site binding model in the MicroCal ITC Origin Analysis software 7.0 (Table 1, Figs 3B and 5A, Supplementary Table S3, and Supplementary Fig. S10). […]

| Compound | Kd (ITC, 20°C, 100 mM NaCl, 20 mM Tris–HCl, pH 7.5, 300 μM peptide into 30 or 15 μM GST-PHD, one-site model, ± = standard error of fit, representative experiment, read-out: K D) | Kd |
| --- | --- | --- |
| C[C@H](N)C(=O)N[C@@H](CCCNC(=N)N)C(=O)N[C@H](C(=O)N[C@@H](CCCC[N+](C)(C)C)C(=O)N[C@@H](CCC(N)=O)C(=O)N[C@H](C(=O)N[C@@H](C)C(=O)N[C@@H](CCCNC(=N)N)C(=O)N[C@@H](CCCCN)C(=O)N[C@@H](CO)C(=O)N[C@H](C(=O)NCC(N)=O)[C@@H](C)O)[C@@H](C)O)[C@@H](C)O [H3K4me3] | 260 ± 16 nM | – |
| C[C@H](N)C(=O)N[C@@H](CCCNC(=N)N)C(=O)N[C@H](C(=O)N[C@@H](CCCC[N+](C)(C)C)C(=O)N[C@@H](CCC(=O)NCCc1c[nH]c2ccc(O)cc12)C(=O)N[C@H](C(=O)N[C@@H](C)C(=O)N[C@@H](CCCNC(=N)N)C(=O)N[C@@H](CCCCN)C(=O)N[C@@H](CO)C(=O)N[C@H](C(=O)NCC(N)=O)[C@@H](C)O)[C@@H](C)O)[C@@H](C)O [H3K4me3Q5ser] | – | 98 ± 8 nM |

Source: article PMC12238850, “Molecular determinants for recognition of serotonylated chromatin” (Nucleic Acids Research, 2025)
